Measurements published in patent US9609810B2, “Methods for modulating photosynthetic activity” (priority 2012, dated 2017).

Experiments:
Assay type in all cases: in vivo
[1] = test system: dwarf sunflower (Helianthus annuus L.) plants; experiment: Stomata conductance and transpiration in greenhouse-grown plants; settings: foliar application of aqueous 10 ppm NaHS, pH 7.4, once per evening for one week; compared to control plants
Source text: In the following example, a treatment group of dwarf sunflower (Helianthus annuus L.) plants is sprayed once each evening with an aqueous “treatment solution” of 10 ppm sodium hydrosulfide (NaHS) in distilled water, buffered with phosphate, to a pH of 7.4. The control group of plants is sprayed once each evening with an equivalent amount of “control solution” consisting of distilled water buffered with phosphate to a pH of 7.4. The treatment and control groups each include seven plants. The dwarf sunflower plants are grown from seed in 20-cm diameter plastic pots. Each pot contains one plant growing in a peat, sand mixture. […]
Stomata conductance is measured with a steady state porometer (LiCor model LI-1600, LiCor Inc., Lincoln, Nebr.). Measurements are made on the abaxial leaf surfaces where the majority of stomata are located and are recorded after the treated group and the control group are sprayed once per evening for one week.
The transpiration rate is determined by calculating the vapor pressure at the evaporating surface (leaf) and the air vapor pressure. The saturated vapor pressure of the leaf is calculated by measuring leaf temperature. Leaf temperature is measured using an external thermocouple as well as the LICor porometer. […] Relative humidity is determined using a sling psychrometer. […] Averages for 7 plants of each group are calculated and plotted.

[2] = test system: potted pepper (Capsicum sp.) plants; experiment: Transpiration reduction in pepper plants grown in a growth chamber; settings: compared to control plants
Description: In the following example, a treatment group of potted pepper (Capsicum sp.) plants is sprayed once each evening with an aqueous “treatment solution” of 10 ppm sodium hydrosulfide (NaHS) in distilled water, buffered with phosphate, to a pH of 7.4. The control group of plants is sprayed once each evening with an equivalent amount of “control solution” consisting of distilled water buffered with phosphate to a pH of 7.4. Potted pepper plants are grown in a temperature controlled growth-chamber under metal halide lamps. Average temperature in the growth chamber is about 20° C., and relative humidity is about 60%. Pots contain a greenhouse mix peat soil enriched with slow release fertilizer. Environmental conditions (light, temperature, and relative humidity) inside the growth chamber are monitored every 30 minutes during the experiment using standard environmental sensors such as a pyranometer, thermocouple psychrometer, relative humidity sensor and a datalogger. […]
The treatment solution of aqueous sodium hydrosulfide (NaHS) is sprayed once each night onto the top surface and bottom surface of leaves as described in Example 1 using a simple hand sprayer. The control group receives the same quantity of water alone which is sprayed each night onto the leaves in the same fashion as the treated group. […]

corn (Zea Maize) = experiment: Water used to irrigate corn grown under field conditions; settings: end of growing season; compared to non-treated control corn
Source text: In the following example, a treatment group of corn (Zea Maize) is sprayed once each evening with an aqueous “treatment solution” of 10 ppm sodium hydrosulfide (NaHS) in distilled water, buffered with phosphate, to a pH of 7.4. The control group of plants is sprayed once each evening with an equivalent amount of “control solution” consisting of distilled water buffered with phosphate to a pH of 7.4. An experimental plot may be setup with 8 repetitions to obtain statistically independent results. The treatment (aqueous NaHS) and control (water alone) plots may be set up following a randomized scheme. […]
Water Use Measurements. […] This allows the measurement of water used in every single plot such that evaluation of water use differences between the water-alone control crops and NaHS treated crops can be monitored. The system is installed in such a way that every plant may receive a given amount of water determined by using constant rate water applicators. […] Soil water content (SWC) is measured continuously, using a Time Domain Reflectometer sensor installed in each of the twenty-four rows. […] The sensors are monitored by a datalogger (model 23X, Campbell Scientific Inc., Logan, Utah). The probes may be 30 cm long, and can be buried vertically, such that average volumetric water content of the top 30 cm of the soil is measured. […] The soil water content may be measured every 60 seconds. […]

S [NaHS, sodium hydrosulfide]
stomata conductance [1]: decrease in stomata conductance
transpiration ([2]; optimally watered plants sprayed each night with 10 ppm NaHS): reduction in transpiration
cumulative water use ([2]; water stress conditions, sprayed each night with 10 ppm NaHS): cumulative water use in control plants is consistently higher
biomass production (total dry matter) (corn (Zea Maize)): higher biomass production
